ChEMBL document CHEMBL1201862, “PubChem BioAssay data set” (2004)
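These data come from cells grown in 96-well plates and exposed to compound for 48 hours at five concentrations. GI50 is the concentration that inhibits growth by half.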 Active and inactive are the calls of the source. Cut-off read from the data, not from the text of the source: active = GI50 up to about 1.1 µM and inactive = higher.

What was measured:
Test in all cases: inhibition of tumour cell growth, NCI panel, 48 h
[1] = tested on: SW-620
[2] = tested on: Hs-578T
[3] = tested on: SF-268
[4] = tested on: A498
[5] = tested on: 786-0
[6] = tested on: LOX IMVI
[7] = tested on: SNB-19
[8] = tested on: ACHN
[9] = tested on: HOP-92
[10] = tested on: SK-MEL-5
[11] = tested on: SNB-75
[12] = tested on: NCI-H522
[13] = tested on: PC-3
[14] = tested on: BT-549
[15] = tested on: K562
[16] = tested on: MOLT-4
[17] = tested on: M14
[18] = tested on: SK-OV-3
[19] = tested on: U-251
[20] = tested on: MCF7

Row | Structure (SMILES) | GI50 [1] | GI50 [2] | GI50 [3] | GI50 [4] | GI50 [5] | GI50 [6] | GI50 [7] | GI50 [8] | GI50 [9] | GI50 [10] | GI50 [11] | GI50 [12] | GI50 [13] | GI50 [14] | GI50 [15] | GI50 [16] | GI50 [17] | GI50 [18] | GI50 [19] | GI50 [20]
1 | CCOP(=O)(OCC)C1C(CO)OC(n2ccc(=O)[nH]c2=O)C1O (stereo not drawn) | > 100 µM (inactive) | > 100 µM (inactive) | > 100 µM (inactive) | > 100 µM (inactive) | > 100 µM (inactive) | > 100 µM (inactive) | > 100 µM (inactive) | > 100 µM (inactive) | > 100 µM (inactive) | > 100 µM (inactive) | 35.9 µM (inactive) | > 100 µM (inactive) | > 100 µM (inactive) | > 100 µM (inactive) | > 100 µM (inactive) | > 10 µM (inactive) | > 100 µM (inactive) |  |  | 
2 | CCCC1=NC(C(F)(F)F)(C(F)(F)F)N=C(N2CCOCC2)O1 | > 100 µM (inactive) | > 100 µM (inactive) | > 100 µM (inactive) |  | > 100 µM (inactive) | > 100 µM (inactive) | > 100 µM (inactive) |  | 25.3 µM (inactive) | > 100 µM (inactive) | > 100 µM (inactive) |  | > 100 µM (inactive) | > 100 µM (inactive) | > 100 µM (inactive) | > 100 µM (inactive) | > 100 µM (inactive) | > 100 µM (inactive) | > 100 µM (inactive) | > 100 µM (inactive)
3 | BrCC[N+]12CCCN1CCC2 | 2.28 µM (inactive) | 0.692 µM (active) | 24.9 µM (inactive) | 45.9 µM (inactive) | 9.06 µM (inactive) | 11.5 µM (inactive) | > 43 µM (inactive) | 7.26 µM (inactive) | 5.22 µM (inactive) | 18 µM (inactive) | 16.7 µM (inactive) | 0.664 µM (active) | 17.1 µM (inactive) | 14.4 µM (inactive) | 2.9 µM (inactive) | 3.43 µM (inactive) | 11 µM (inactive) | > 65.5 µM (inactive) | 16.5 µM (inactive) | 
4 | Cc1ccc(/N=N/c2c(O)c(C(=O)Nc3ccccc3)cc3ccccc23)c([N+](=O)[O-])c1 | > 100 µM (inactive) | > 100 µM (inactive) | > 100 µM (inactive) | > 100 µM (inactive) | > 100 µM (inactive) | > 100 µM (inactive) | > 100 µM (inactive) | > 100 µM (inactive) | > 100 µM (inactive) | > 100 µM (inactive) | > 100 µM (inactive) | > 100 µM (inactive) | > 100 µM (inactive) | > 100 µM (inactive) | > 100 µM (inactive) | > 100 µM (inactive) | > 100 µM (inactive) | > 100 µM (inactive) | > 100 µM (inactive) | 
5 | c1ccc(C(NCC2CCO2)(c2ccccc2)c2ccccc2)cc1 (stereo not drawn) | 19.3 µM (inactive) |  |  | 19.2 µM (inactive) | 20 µM (inactive) | 28.6 µM (inactive) | 13.7 µM (inactive) | 15.7 µM (inactive) | 13.9 µM (inactive) | 25.6 µM (inactive) | 15.2 µM (inactive) | 13.5 µM (inactive) | 15.8 µM (inactive) | 22.3 µM (inactive) | 34.1 µM (inactive) | 30.2 µM (inactive) | 17.1 µM (inactive) | 19.7 µM (inactive) | 23 µM (inactive) | 16.8 µM (inactive)
6 | O=C1NC2CCCCC2NC1=C(C(=O)c1ccccc1)C(=O)c1ccccc1 (stereo not drawn) | 39.3 µM (inactive) | 62.8 µM (inactive) | 69.2 µM (inactive) | > 100 µM (inactive) | > 100 µM (inactive) | 38.1 µM (inactive) | 65.9 µM (inactive) | 33.6 µM (inactive) |  | 27.5 µM (inactive) |  | 18.9 µM (inactive) | 53 µM (inactive) | 10.9 µM (inactive) | 35.5 µM (inactive) | 20.5 µM (inactive) | 66.4 µM (inactive) | 25.4 µM (inactive) | 26.6 µM (inactive) | 16.9 µM (inactive)
